The C3SDB collision cross section collection

Conditions: [M+H]+; instrument: TW; Major Mix IMS/Tof Calibration Kit (Waters)

SMILES | collision cross section (N2)
COc1cc(CCN)c(OC)cc1Br [2C-B] | 155.6 Å²
COc1cc(CCNCc2ccccc2OC)c(OC)cc1Cl [25C-NBOMe] | 177.6 Å²
Cc1nnc2n1-c1ccc(Cl)cc1C(c1ccccc1)=NC2 [Alprazolam] | 171.5 Å²
CCN(CC)C(C)C(=O)c1ccccc1 (stereo unspecified) [Amfepramone] | 148 Å²
CN1[C@@H]2CC[C@H]1C[C@@H](OC(=O)C(CO)c1ccccc1)C2 (stereo partly specified) [Atropine] | 171.5 Å²
CN1[C@H]2CC[C@@H]1[C@@H](C(=O)O)[C@@H](OC(=O)c1ccccc1)C2 [Benzoylecgonine] | 167.3 Å²
CC(NC(C)(C)C)C(=O)c1cccc(Cl)c1 (stereo unspecified) [Bupropion] | 157.8 Å²
CNC1=Nc2ccc(Cl)cc2C(c2ccccc2)=[N+]([O-])C1 [Chlordiazepoxide] | 170.4 Å²
CC(C)(C)NCC(O)c1cc(Cl)c(N)c(Cl)c1 (stereo unspecified) [Clenbuterol] | 165.6 Å²
O=C1CN=C(c2ccccc2Cl)c2cc([N+](=O)[O-])ccc2N1 [Clonazepam] | 168.2 Å²
CCOC(=O)[C@H]1[C@@H](OC(=O)c2ccccc2)C[C@@H]2CC[C@H]1N2C [Cocaine-M Cocaethylene] | 173.5 Å²
COc1ccc2c(c1)[C@]13CCCC[C@@H]1[C@H](C2)N(C)CC3 [Dextromethorphan] | 166.3 Å²
CCC(=O)O[C@](Cc1ccccc1)(c1ccccc1)[C@H](C)CN(C)C [Dextropropoxyphene] | 180.7 Å²
CN1CC[C@]23c4c5ccc(O)c4O[C@H]2[C@@H](O)CC[C@H]3[C@H]1C5 [Dihydromorphine] | 163.6 Å²
CNC(=O)CSP(=S)(OC)OC [Dimethoate] | 139.9 Å²
CCNC(C)C(=O)c1ccccc1 (stereo unspecified) [Ethcathinone] | 139.2 Å²

Next, values leading:

collision cross section (N2) | SMILES
190.2 Å² | CCCC(=O)Nc1ccc(OCC(O)CNC(C)C)c(C(C)=O)c1 (stereo unspecified) [Acebutolol]
176.6 Å² | CC(=O)c1ccc2c(c1)N(CCCN(C)C)c1ccccc1S2 [Acepromazine]
193.1 Å² | CCN1CCCC1CNC(=O)c1cc(S(=O)(=O)CC)c(N)cc1OC (stereo unspecified) [Amisulpride]
159.5 Å² | CC(C)NCC(O)COc1ccc(CC(N)=O)cc1 (stereo unspecified) [Atenolol]
148.2 Å² | CCOC(=O)c1ccc(N)cc1 [Benzocaine]
173.1 Å² | CCCCN1CCCCC1C(=O)Nc1c(C)cccc1C (stereo unspecified) [Bupivacaine]
199.3 Å² | O=C1CC2(CCCC2)CC(=O)N1CCCCN1CCN(c2ncccn2)CC1 [Buspirone]
138.3 Å² | Cn1c(=O)c2c(ncn2C)n(C)c1=O [Caffeine]
142.5 Å² | C[C@H](CS)C(=O)N1CCC[C@H]1C(=O)O [Captopril]
150.3 Å² | NC(=O)N1c2ccccc2C=Cc2ccccc21 [Carbamazepine]
190 Å² | COc1ccccc1OCCNCC(O)COc1cccc2[nH]c3ccccc3c12 (stereo unspecified) [Carvedilol]
186.4 Å² | Cc1ccc(-c2cc(C(F)(F)F)nn2-c2ccc(S(N)(=O)=O)cc2)cc1 [Celecoxib]
186.2 Å² | OCCN1CCN(C(c2ccccc2)c2ccc(Cl)cc2)CC1 (stereo unspecified) [Cetirizine-M O-desalkyl]
164.5 Å² | CN(C)CCC(c1ccc(Cl)cc1)c1ccccn1 (stereo unspecified) [Chlorphenamine]
168.7 Å² | CNCCCN1c2ccccc2Sc2ccc(Cl)cc21 [Chlorpromazine-M norl]
165.9 Å² | CNCC/C=C1/c2ccccc2Sc2ccc(Cl)cc21 [Chlorprothixene-M N-desmethyl]

collision cross section (N2) | SMILES
156.5 Å² | CN/C(=N\C#N)NCCSCc1nc[nH]c1C [Cimetidine]
180.1 Å² | CN(C)CCCC1(c2ccc(F)cc2)OCc2cc(C#N)ccc21 (stereo unspecified) [Citalopram]
178.8 Å² | CN1CCN(C2=Nc3cc(Cl)ccc3Nc3ccccc32)CC1 [Clozapine]
166.7 Å² | CN1CCN(C(c2ccccc2)c2ccccc2)CC1 [Cyclizine]
164.7 Å² | CN(C)CCC=C1c2ccccc2C=Cc2ccccc21 [Cyclobenzaprine]
157.7 Å² | O=C(O)Cc1ccccc1Nc1c(Cl)cccc1Cl [Diclofenac]
186.3 Å² | COc1ccc([C@@H]2Sc3ccccc3N(CCN(C)C)C(=O)[C@@H]2O)cc1 [Diltiazem-M deacetyl]
227.5 Å² | OCCN(CCO)c1nc(N2CCCCC2)c2nc(N(CCO)CCO)nc(N3CCCCC3)c2n1 [Dipyridamole]
201 Å² | CC(CN1CCN(CCOCCO)CC1)CN1c2ccccc2Sc2ccccc21 (stereo unspecified) [Dixyrazine]
198.1 Å² | COc1cc2c(cc1OC)C(=O)C(CC1CCN(Cc3ccccc3)CC1)C2 (stereo unspecified) [Donepezil]
167.3 Å² | CN(C)CCC=C1c2ccccc2CSc2ccccc21 [Dosulepin]
202.9 Å² | COc1cc2nc(N3CCN(C(=O)C4COc5ccccc5O4)CC3)nc(N)c2cc1OC (stereo unspecified) [Doxazosin]
161.9 Å² | CN(C)CCOC(C)(c1ccccc1)c1ccccn1 (stereo unspecified) [Doxylamine]
197.6 Å² | COC(=O)[C@@H]1CC2=CC(=O)CC[C@]2(C)[C@@]23O[C@@H]2C[C@@]2(C)[C@@H](CC[C@@]24CCC(=O)O4)[C@H]13 [Eplerenone]
211.5 Å² | Fc1ccc(C(c2ccc(F)cc2)N2CCN(C/C=C/c3ccccc3)CC2)cc1 [Flunarizine]

Conditions: [M+H]+; instrument: DT; stepped-field

SMILES | collision cross section (N2)
CCCCCCCCCCCCCCCCCCCC(=O)OC[C@@H](O)COP(=O)([O-])OCC[N+](C)(C)C [LPC(20:0)] | 248.6 Å²

Same assay, conditions: [M+Na]+; instrument: DT; stepped-field

SMILES | collision cross section (N2)
CCCCCCCCCCCCCCCCCCCC(=O)OC[C@@H](O)COP(=O)([O-])OCC[N+](C)(C)C [LPC(20:0)] | 251.13 Å²

Conditions: [M+H]+; instrument: DT; single field, calibrated with Agilent tune mix (Agilent)

collision cross section (N2) | SMILES
307.2 Å² | CCCCCCCCCCCCC=CC[C@@H](O)[C@H](CO[C@@H]1O[C@H](CO)[C@@H](O)C(O)C1O)NC(=O)CCCCCCCCCCCCCCCCCCCCCCCCC (stereo partly specified) [GlcCer(44:1)]
228.4 Å² | CCCCCC/C=C\CCCCCCCCC(=O)OC[C@@H](O)COP(=O)([O-])OCC[N+](C)(C)C [LPC(17:1)]
283.3 Å² | CCCCCC/C=C\CCCCCCCC/C=C\OC[C@H](COP(=O)([O-])OCC[N+](C)(C)C)OC(=O)CCCCCCC/C=C\CCCCCC [PC(p34:2)]
305.1 Å² | CCCCCC/C=C\CCCCCCCC(=O)OC[C@H](COP(=O)(O)O[C@H]1C(O)C(O)C(O)[C@@H](O)C1O)OC(=O)CCCCCCCCC/C=C\CCCCCCCCCC (stereo partly specified) [PI(38:2)]
278.5 Å² | CCCCCCCCCCCCCCC[C@@H](O)[C@H](COP(=O)([O-])OCC[N+](C)(C)C)NC(=O)CCCCCCCCCCCCC [SM(32:0)]

SMILES | collision cross section (N2)
CCCCCCCCCCCCCCCCCCCC(=O)OC[C@@H](O)COP(=O)([O-])OCC[N+](C)(C)C [LPC(20:0)] | 243.9 Å²
CCCCCCCCCCCCCCCCCC(=O)OC[C@@H](O)COP(=O)(O)OC[C@H](N)C(=O)O [LPS(18:0)] | 228.3 Å²

Same assay, conditions: [M+NH4]+; instrument: DT; single field, calibrated with Agilent tune mix (Agilent)

SMILES | collision cross section (N2)
CCCCCC/C=C\CCCCCCCC(=O)OC[C@H](COP(=O)(O)O[C@H]1C(O)C(O)C(O)[C@@H](O)C1O)OC(=O)CCCCCCCCC/C=C\CCCCCCCCCC (stereo partly specified) [PI(38:2)] | 306 Å²
CCCCC/C=C\CCCCCCCC(=O)OC[C@H](COC(=O)CCCCCCCCCCCCCCCCCC)OC(=O)CCCCCCCCCCCCCCCCCC [TG(53:1)] | 325 Å²
CCCCC/C=C\C/C=C\C/C=C\C/C=C\CCCCCC(=O)OC[C@@H](COC(=O)CCCCCCCCCCCC)OC(=O)CCCCCCC/C=C\CCCCCCCCC [TG(54:5)] | 322.1 Å²
CCCCCCCCCC/C=C\CCCCCCCCCC(=O)OC[C@@H](COC(=O)CCCCCCCCCCC)OC(=O)CCCCCCCCCCCCCCCCCCCCC [TG(56:1)] | 333.6 Å²
CCCCCCCC/C=C\CCCCCCCC(=O)OC[C@H](COC(=O)CCCCCCCCC/C=C\CCCCCCCCCC)OC(=O)CCCCCCCCC/C=C\CCCCCCCCCC [TG(62:3)] | 346.8 Å²
CCCCC/C=C\C/C=C\C/C=C\C/C=C\CCCCCC(=O)OC[C@@H](COC(=O)CCCCCCC/C=C\CCCCCCCC)OC(=O)CCCCCCCCCCC/C=C\C/C=C\CCCCC [TG(62:7)] | 343.6 Å²

Continued, values first:

collision cross section (N2) | SMILES
334.1 Å² | CC/C=C\C/C=C\C/C=C\C/C=C\C/C=C\CCCCCC(=O)OC[C@@H](COC(=O)CCCCCCC/C=C\C/C=C\CCCCC)OC(=O)CCCCCC/C=C\C/C=C\C/C=C\CCCCC [TG(60:10)]
332.7 Å² | CC/C=C\C/C=C\C/C=C\C/C=C\C/C=C\CCCCCC(=O)OC[C@@H](COC(=O)CCCC/C=C\C/C=C\C/C=C\C/C=C\CC)OC(=O)CCCCC/C=C\C/C=C\C/C=C\C/C=C\C/C=C\CC [TG(62:14)]

Same assay, conditions: [M+Na]+; instrument: DT; single field, calibrated with Agilent tune mix (Agilent)

collision cross section (N2) | SMILES
308.7 Å² | CCCCCCCCCCCCC=CC[C@@H](O)[C@H](CO[C@@H]1O[C@H](CO)[C@@H](O)C(O)C1O)NC(=O)CCCCCCCCCCCCCCCCCCCCCCCCC (stereo partly specified) [GlcCer(44:1)]
303.2 Å² | CCCCCC/C=C\CCCCCCCC(=O)OC[C@H](COP(=O)(O)O[C@H]1C(O)C(O)C(O)[C@@H](O)C1O)OC(=O)CCCCCCCCC/C=C\CCCCCCCCCC (stereo partly specified) [PI(38:2)]

SMILES | collision cross section (N2)
CCCCCCCCCCCCCCCCCC(=O)OC[C@@H](O)COP(=O)(O)OC[C@H](N)C(=O)O [LPS(18:0)] | 232.1 Å²

Same assay, conditions: [M-H]-; instrument: DT; single field, calibrated with Agilent tune mix (Agilent)

collision cross section (N2) | SMILES
279.2 Å² | CCCCC/C=C\C/C=C\CCCCCCCC(=O)O[C@H](COC(=O)CCCCCCCCC/C=C\CCCCCCCC)COP(=O)(O)OC[C@@H](O)CO [PG(38:3)]
295.2 Å² | CCCCCC/C=C\CCCCCCCC(=O)OC[C@H](COP(=O)(O)O[C@H]1C(O)C(O)C(O)[C@@H](O)C1O)OC(=O)CCCCCCCCC/C=C\CCCCCCCCCC (stereo partly specified) [PI(38:2)]
296.5 Å² | CCCCC/C=C\C/C=C\C/C=C\CCCCCCC(=O)O[C@H](COC(=O)CCCCCCCCCCCCCCCCCC)COP(=O)(O)O[C@H]1C(O)C(O)C(O)[C@@H](O)C1O (stereo partly specified) [PI(39:3)]
295 Å² | CCCCC/C=C\C/C=C\C/C=C\C/C=C\CCCCCC(=O)O[C@H](COC(=O)CCCCCCCCCCCCCCCC)COP(=O)(O)O[C@H]1C(O)C(O)C(O)[C@@H](O)C1O (stereo partly specified) [PI(39:4)]
